From PMC10709440, “High-throughput ligand profile characterization in novel cell lines expressing seven heterologous insect olfactory receptors for the detection of volatile plant biomarkers” (Scientific Reports, 2023)
Where two headings read alike, the source gives them in different places.

What was measured:
OR49b = system: OR49b; design: method as in earlier work; conditions: DoOR database value, ref DoOR, cited from earlier work
OR98a = system: OR98a; design: method as in earlier work; conditions: DoOR database value, ref DoOR, cited from earlier work
OR47a = system: OR47a; design: method as in earlier work; conditions: DoOR database value, ref DoOR, cited from earlier work
OR10a = system: OR10a; design: method as in earlier work; conditions: DoOR database value, ref DoOR, cited from earlier work
Drosophila OR98a = biological target: T1, Drosophila OR98a (Drosophila melanogaster, UniProt Q9VAZ3); experiment: Calcium ion fluorescence (GCaMP6) assay, OR98a stable HEK293 cell line; assay type: cell-based; conditions: for OR98a response (VUAA1-normalized) at 1 μM / OR98a response (VUAA1-normalized) at 10 μM / OR98a response (VUAA1-normalized) at 100 μM: OR98a cell line; for OR98a response (VUAA1-normalized) at 1 μM: VOC concentration 1 μM; for OR98a response (VUAA1-normalized) at 10 μM: VOC concentration 10 μM; for OR98a response (VUAA1-normalized) at 100 μM: VOC concentration 100 μM
T1 construct: expressed in transfected cells
T1 sequence (Q9VAZ3 1-397): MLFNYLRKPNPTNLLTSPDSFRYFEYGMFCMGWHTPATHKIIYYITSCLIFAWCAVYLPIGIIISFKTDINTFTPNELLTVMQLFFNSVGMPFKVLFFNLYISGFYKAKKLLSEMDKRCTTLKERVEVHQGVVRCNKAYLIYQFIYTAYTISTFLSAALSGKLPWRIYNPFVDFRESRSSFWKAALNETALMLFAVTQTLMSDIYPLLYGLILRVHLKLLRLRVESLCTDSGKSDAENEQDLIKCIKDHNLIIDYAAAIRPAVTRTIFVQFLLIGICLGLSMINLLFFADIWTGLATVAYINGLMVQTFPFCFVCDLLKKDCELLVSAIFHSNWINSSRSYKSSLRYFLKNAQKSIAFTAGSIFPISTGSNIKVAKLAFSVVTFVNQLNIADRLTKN
T1 sequence (Q9VNB5 1-486 partner): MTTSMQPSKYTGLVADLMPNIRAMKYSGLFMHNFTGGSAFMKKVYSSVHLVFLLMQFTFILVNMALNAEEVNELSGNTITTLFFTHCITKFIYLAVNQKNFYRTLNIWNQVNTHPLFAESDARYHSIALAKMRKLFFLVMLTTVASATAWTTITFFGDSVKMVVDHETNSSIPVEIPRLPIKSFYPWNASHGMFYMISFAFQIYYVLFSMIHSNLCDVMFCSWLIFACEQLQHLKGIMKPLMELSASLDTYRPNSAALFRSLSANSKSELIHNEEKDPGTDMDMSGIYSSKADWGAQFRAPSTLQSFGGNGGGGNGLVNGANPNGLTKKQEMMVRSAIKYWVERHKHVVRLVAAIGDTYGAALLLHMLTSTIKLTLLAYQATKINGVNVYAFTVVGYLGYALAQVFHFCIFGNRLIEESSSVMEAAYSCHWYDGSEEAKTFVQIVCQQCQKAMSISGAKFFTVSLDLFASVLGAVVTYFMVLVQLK
Procedure, shortened: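 Responses are VUAA1-normalized ΔF: each VOC-evoked calcium signal, (FMAX−F0)/F0 over 30 s after injection, divided by the same line's mean 50 µM VUAA1 response. Cells were doxycycline-induced HEK293 with GCaMP6 and the cognate Drosophila OR, in HEPES buffer pH 7.3; ligands tested 0.01–100 μM.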

OR85b = system: OR85b; design: method as in earlier work; conditions: DoOR database value, ref DoOR, cited from earlier work
OR13a = system: OR13a; design: method as in earlier work; conditions: DoOR database value, ref DoOR, cited from earlier work
[1] = HEK293, read-out: Average response
[2] = HEK293, read-out: OR98a response (VUAA1-normalized response)
[3] = ligand concentration 1 (unit not given), threshold 0.05, below shown as 0
[4] = ligand concentration 10 (unit not given), threshold 0.05, below shown as 0
[5] = ligand concentration 100 (unit not given), threshold 0.05, below shown as 0
[6] = HEK293, read-out: OR98a Average response (VUAA1-normalized)
[7] = concentration 1, normalized fluorescence change, values below 0.05 threshold given as 0
[8] = concentration 10, normalized fluorescence change, values below 0.05 threshold given as 0
[9] = concentration 100, normalized fluorescence change, values below 0.05 threshold given as 0

SMILES | OR49b DoOR response (OR49b) | OR98a DoOR response (OR98a) | OR47a DoOR response (OR47a) | OR10a DoOR response (OR10a) | activation at 1 µM (Drosophila OR98a; [1]) [%] | activation at 10 µM (Drosophila OR98a; [1]) [%] | activation at 100 µM (Drosophila OR98a; [1]) [%] | activation at 1 µM (Drosophila OR98a; [2]) [%] | activation at 10 µM (Drosophila OR98a; [2]) [%] | activation at 100 µM (Drosophila OR98a; [2]) [%] | DF norm AVERAGE OR98a (Drosophila OR98a; [3]) | DF norm AVERAGE OR98a (Drosophila OR98a; [4]) | DF norm AVERAGE OR98a (Drosophila OR98a; [5]) | OR85b DoOR response (OR85b) | OR13a DoOR response (OR13a) | activation at 1 µM (Drosophila OR98a; [6]) [%] | activation at 10 µM (Drosophila OR98a; [6]) [%] | activation at 100 µM (Drosophila OR98a; [6]) [%] | OR49b DoOR response (OR49b; OR49b) | OR98a DoOR response (OR98a; OR98a) | further results
C=CCc1ccc(O)c(OC)c1 [eugenol] | 0.002 | 0.15 | -0.013 | 0.15 | 3.37 | 0 | 0 | 0 | 0 | 0 | 0 | 0 | 0 | 0.053 | 0.024 |  |  |  |  |  | 
CCCCCC(O)CC (stereo not drawn) [3-octanol] | 0.03 | 0.59 | 0.47 | 0.12 | 1.89 | 3.68 | 13 | 0 | 0 | 13 |  |  |  | 0.68 | 0.58 | 2 | 4 | 13 |  |  | DF norm AVERAGE OR98a (Drosophila OR98a; [7]): 0; DF norm AVERAGE OR98a (Drosophila OR98a; [8]): 0; DF norm AVERAGE OR98a (Drosophila OR98a; [9]): 0.1274
CCOC(=O)CC [ethyl propionate] | 0.017 | 0.08 | 0.16 | 0.064 | 2 | 2 | 1.5 | 0 | 0 | 0 | 0 | 0 | 0 | 0.066 | 0.034 |  |  |  |  |  | 
CCCCCC(C)=O [2-heptanone] | 0.011 | 0.62 | 0.58 | 0.016 | 7 | 1.68 | 11 | 7 | 0 | 11 |  |  |  | 0.65 | 0.26 | 7 | 2 | 11 |  |  | DF norm AVERAGE OR98a (Drosophila OR98a; [7]): 0.06738; DF norm AVERAGE OR98a (Drosophila OR98a; [8]): 0; DF norm AVERAGE OR98a (Drosophila OR98a; [9]): 0.1149
CC/C=C\CCO [Z-3-hexenol] |  |  |  |  |  |  |  |  |  |  |  |  |  |  |  |  |  |  | 0.07 | 0.44 | OR47a DoOR response (OR47a; OR47a): 0.14; OR10a DoOR response (OR10a; OR10a): 0.007; OR98a response (VUAA1-normalized) at 1 μM (Drosophila OR98a): 0.00; OR98a response (VUAA1-normalized) at 10 μM (Drosophila OR98a): 0.17; OR98a response (VUAA1-normalized) at 100 μM (Drosophila OR98a): 0.11; OR85b DoOR response (OR85b; OR85b): 0.60; OR13a DoOR response (OR13a; OR13a): 0.37
CC1=CC[C@@H](C(C)(C)O)CC1 [alpha-terpineol] | 0.006 | 0.033 | 0.018 | -0.005 | 0 | 1.81 | 6.45 | 0 | 0 | 6.45 | 0 | 0 | 0.06455 | 0.11 | 0.023 |  |  |  |  |  | 
C=CC(C)(O)CCC=C(C)C (stereo not drawn) [linalool] |  |  |  |  | 0 | 0 | 4 |  |  |  | 0 | 0 | 0 |  |  |  |  |  | 0.016 | 0.47 | OR47a DoOR response (OR47a; OR47a): 0.04; OR10a DoOR response (OR10a; OR10a): 0.001; OR98a response (VUAA1-normalized) at 1 μM (Drosophila OR98a): 0.00; OR98a response (VUAA1-normalized) at 10 μM (Drosophila OR98a): 0.00; OR98a response (VUAA1-normalized) at 100 μM (Drosophila OR98a): 0.00; OR85b DoOR response (OR85b; OR85b): 0.16; OR13a DoOR response (OR13a; OR13a): 0.16
CCOC(=O)c1ccccc1 [ethyl benzoate] | 0.002 | 0.78 | 0.06 | 0.68 | 3 | 0 | 20 | 0 | 0 | 20 | 0 | 0 | 0.2048 | -0.014 | 0.043 | 3 | 0 | 20 |  |  | 
COC(=O)c1ccccc1O [methyl salicylate] |  |  |  |  | 3 | 1.79 | 4 |  |  |  | 0 | 0 | 0 |  |  |  |  |  | 0.05 | 0.034 | OR47a DoOR response (OR47a; OR47a): -0.032; OR10a DoOR response (OR10a; OR10a): 0.75; OR98a response (VUAA1-normalized) at 1 μM (Drosophila OR98a): 0.00; OR98a response (VUAA1-normalized) at 10 μM (Drosophila OR98a): 0.00; OR98a response (VUAA1-normalized) at 100 μM (Drosophila OR98a): 0.00; OR85b DoOR response (OR85b; OR85b): 0.009; OR13a DoOR response (OR13a; OR13a): 0.07
CC(=O)OCCC(C)C [isopentyl acetate] | 0.027 | 0.64 | 0.41 | 0.42 | 2.74 | 2.22 | 31 | 0 | 0 | 31 | 0 | 0 | 0.3069 | 0.34 | 0.15 | 3 | 2 | 31 |  |  | 
Cc1ccc(O)cc1 [4-methylphenol] | 0.43 | 0.085 | -0.037 | 0.24 | 0 | 2 | 2.76 | 0 | 0 | 0 |  |  |  | 0.37 | 0.019 |  |  |  |  |  | DF norm AVERAGE OR98a (Drosophila OR98a; [7]): 0; DF norm AVERAGE OR98a (Drosophila OR98a; [8]): 0; DF norm AVERAGE OR98a (Drosophila OR98a; [9]): 0
OCCc1ccccc1 [phenethyl alcohol] |  |  |  |  | 4 | 5 | 12 |  |  |  | 0 | 0.05123 | 0.122 |  |  | 4 | 5 | 12 | 0.09 | -0.01 | OR47a DoOR response (OR47a; OR47a): 0.009; OR10a DoOR response (OR10a; OR10a): 0.014; OR98a response (VUAA1-normalized) at 1 μM (Drosophila OR98a): 0.00; OR98a response (VUAA1-normalized) at 10 μM (Drosophila OR98a): 0.05; OR98a response (VUAA1-normalized) at 100 μM (Drosophila OR98a): 0.12; OR85b DoOR response (OR85b; OR85b): 0.006; OR13a DoOR response (OR13a; OR13a): 0.12
